The source of these data is patent publication US8022203B2, “Amino derivatives of beta-homoandrostanes and beta-heteroandrostanes” (Sigma-Tau Industrie Farmaceutiche Riunite S.p.A., priority 2006, dated 2011).

The target in one data set is Na^+,K^+-ATPase (Canis lupus familiaris, UniProt P50997). Kind of data set: Dog kidney Na+,K+-ATPase inhibition (hydrolysis of 32P-ATP). Format: biochemical.
In data set [1] the test system is spontaneous hypertensive rats of the Milan (MHS). Kind of data set: Systolic blood pressure fall in spontaneous hypertensive rats (MHS), tail-cuff. The data set is classed as in vivo, rat. As to conditions: five weeks, vs vehicle control.
The test system of data set [2] is hypertensive ouabain-sensitive rats (OS rats). Kind of data set: Systolic blood pressure fall in hypertensive ouabain-sensitive rats (OS rats), tail-cuff. Format: in vivo, rat. Particulars: 10 μg/kg/day by mouth, four weeks. As for the experimental part: The ability of these compounds to lower blood pressure was tested by using animal models with genetic arterial hypertension, in particular, spontaneous hypertensive rats of the Milan (MHS) (Bianchi G., Ferrari P., Barber B. The Milan Hypertensive strain. In Handbook of hypertension. Vol. 4: Experimental and genetic models of hypertension. Ed. W. de jong-Elsevier Science Publishers B.V., 1984:328-349) and rats made hypertensive by chronic infusion of ouabain, according to Ferrari P., et al. J. Pharm. Exp. Ther. 1998, 285, 83-94.
The procedure adopted to test the antihypertensive activity of the compounds on the above mentioned model was the following: systolic blood pressure (SBP) and heart rate (HR) were measured by an indirect tail-cuff method.
SBP and HR were measured weekly 6 hours after the treatment.

The next data set deals with anesthetized guinea-pig. Nature of the data set: Inotropic effect and lethal dose, slow intravenous infusion in anesthetized guinea-pig.
[3] abbreviates: Na^+,K^+-ATPase Inhibition IC50.
The mark [4] stands for this setting: slow intravenous infusion over 90 minutes.

Counter-ions that a name gives are not always drawn. Like-named read-outs stand apart in the source and are kept apart here.

Consider `CC12CCC3C(CC(=O)NC4CC(=NOCCN)CCC43C)C1CCC2=O` (stereo not drawn) [I-aa, (E,Z) 3-(2-Aminoethoxyimino)-6-aza-7a-homoandrostane-7,17-dione hydrochloride], for which the IC50 at Na^+,K^+-ATPase (setting [3]) is 25 µM. Moreover, the SBP - % in data set [1] (0.001 μg/kg/os daily) is listed as 0.0%; in data set [1] (0.01 μg/kg/os daily), 5.2%; in data set [1] (0.1 μg/kg/os daily), 6.5%; in data set [1] (1 μg/kg/os daily), 6.0%; in data set [1] (10 μg/kg/os daily) it was 7.1%; in data set [2], 10.0%. The “SBP - mm Hg (decrease in systolic blood pressure)” value in data set [1] (0.001 μg/kg/os daily) is recorded as 1.0 +/− 1.1 mm Hg; in data set [1] (0.01 μg/kg/os daily), 8.8 +/− 1.6 mm Hg; in data set [1] (0.1 μg/kg/os daily), 11.3 +/− 1.5 mm Hg; in data set [1] (1 μg/kg/os daily) it was 10.0 +/− 2.1 mm Hg; in data set [1] (10 μg/kg/os daily), 12.3 +/− 1.1 mm Hg. Also, the “SBP - mm Hg (fall)” value in data set [2] amounted to 17.0 mm Hg. Also, in data set [2], the “SBP mm Hg” value worked out at 153.0 mm Hg.
`CC12CCC3C(CCN(C=O)C4CC(=NOC5CCNC5)CCC34C)C1CCC2=O` [I-ap, (E,Z) 3-[3-(R)-Pyrrolidinyl]oxyimino-6-aza-6-formyl-7a-homoandrostane-17-one hydrochloride]: inhibition against Na^+,K^+-ATPase (setting [3]) was half-maximal at 35 µM (IC50). In addition, in data set [2], the SBP - % stood at 9.4%, the “SBP - mm Hg (fall)” value is reported as 15.0 mm Hg and the “SBP mm Hg” value is reported as 154.0 mm Hg.
As to `C[C@]12CCC(=NOCCN)CC1C(=O)C[C@@H]1[C@@H]2CC[C@]2(C)C(=O)CC[C@@H]12.Cl` (mixture of isomers) [Compd. 22b, (EZ) 3-(2-aminoethoxyimino)androstane-6,17-dione hydrochloride, reference compound], at Na^+,K^+-ATPase (dog kidney enzyme, read-out: Na^+,K^+-ATPase Inhibition IC50), the IC50 turned out to be 0.33 µM. Further, in data set [1] (10 μg/kg/os daily), the SBP - % stood at 2.2% and the “SBP - mm Hg (decrease in systolic blood pressure)” value is given as 3.6 +/− 4.8 mm Hg. Besides, in data set [1] (100 μg/kg/os daily), the SBP - % was determined as 6.6% and the “SBP - mm Hg (decrease in systolic blood pressure)” value is 10.7 +/− 7.5 mm Hg. In the data set on anesthetized guinea-pig (20 minutes after the end of the infusion), the “% decrease from Emax after 20 min from the end of the infusion” value is 100%. For the same compound, the “Lethal dose/ED80” value in the data set on anesthetized guinea-pig (calculated in the died animals) is given as 22.6. Also, the Maximum dose infused in the data set with anesthetized guinea-pig (in the survived animals) came to 32.1 µmol/kg. In addition, in the data set on anesthetized guinea-pig (setting [4]), the Dead/treated is 7/8, the “ED80 (dose increasing +dP/dTmax by 80%)” value was determined as 1.82 µmol/kg, the “EDmax (dose inducing maximum positive inotropic effect)” value worked out at 5.74 µmol/kg and the “Emax % increase in +dP/dTmax” value was 182%.

The IC50 is the concentration at which inhibition is half-maximal.
